What was measured:
APTK-OVA tumors = assay: adoptive transfer of UA-conditioned OT-1 T cells into mice bearing APTK-OVA tumors; type: in vivo, Rag1^−/− mice
Description: Adoptive cell transfer (ACT) represents the infusion of antigen-specific leukocytes with direct antitumor activity, yet identification, selection and expansion of lymphocyte subsets harboring optimal antitumor qualities remains one of the most crucial challenges (Rosenberg and Restifo, 2015). ACT benefits especially from minimally differentiated cells due to their improved survival and long-term potential to generate unexhausted effector cells (Luca Gattinoni et al; Mo et al., 2021; Roberto et al., 2015). In particular, CD8^+ T cells restricted in a stem-like state have been associated with enhanced tumor suppressive properties upon adoptive cell transfer (Enrico Lugli et al; Verma et al., 2021). […] The inventors cultured T cells from OT-1 donor mice (FIG. 3A) for 48 hours in the presence of UA or vehicle control, followed by adoptive transfer into immunodeficient Rag1^−/− mice. […] Moreover, consistent with an improved memory response, animals receiving UA-pretreated T cells contained less Tim3^HiPD1^Hi terminally exhausted CD8^+ T cells in the TME (FIG. 3I). Thus, UA augments immune-mediated antitumor memory upon adoptive cell transfer.
For adoptive cell transfer transfer, purified splenic T cell from OT1 mice were isolated and activated using aCD3/aCD28 stimulation beads for 48 h. After magnetic bead removal, 1×10^6 T of activated T cell were intravenously injected into Rag1^−/− recipients. To study survival of transferred T cells, stimulated OT-1 T cells were injected into mice without tumors. Subsequently, after 7 days, spleens were isolated and splenocytes were stained for the CD8^+ subsets as described below. To understand antitumor immunity conferred by transferred OT-1 lymphocytes, cells were injected into mice carrying APTK-OVA tumors 10 days after subcutaneous organoid transplantation. Tumor growth was assessed as described above. Mice were kept under regular chow food for the T cell adoptive transfer experiment and sacrificed collectively when maximum tumor diameter extended 1.5 cm.
Tumors were minced and digested with Tumor & Tissue Dissociation Reagent (BD Horizon) for 30 min. The remaining organ pieces were filtered through a 70 μm cell strainer. Cells were then washed with PBS 1% BSA and 2 mM EDTA. Immune cells were enriched on a 30%/40%/75% Percoll gradient after a 1700 rpm 17 min centrifugation. […]

CEA-CAR T cells = assay: UA applied to previously frozen CEA-CAR T cells; type: cell-based, human; details: previously frozen CEA-specific CAR-T cells, UA for three days
APTK organoids = assay: APTK tumor organoids incubated with UA, flow cytometry
[1] = UA-T cell transfer vs DMSO treated OT-I T cells
[2] = increasing concentrations of UA (25-50 μM)

O=c1oc2cc(O)ccc2c2ccc(O)cc12 [UA, Urolithin A]
CD62L expression in CD8+ TIL (APTK-OVA tumors; [1]): remained unchanged | expression of CD44 in CD8+ TIL (APTK-OVA tumors; [1]): lower expression | number of TCF1Hi CD8+ tumor infiltrating T cells (APTK-OVA tumors; [1]): higher number | tumor suppression (growth, final tumor weight) (APTK-OVA tumors; UA-conditioned (25 μM, 48 h) vs control OT-I T cells): more substantial tumor suppression | Tim3HiPD1Hi terminally exhausted CD8+ T cells in the TME (APTK-OVA tumors; UA-pretreated vs DMSO treated OT-I T cells): less | CAR TSCM formation (CEA-CAR T cells): strongly enhanced | MHC-I (antigen presentation) (APTK organoids; UA 25-50 μM, 48 h): marked upregulation | MitoTracker staining (APTK organoids; [2]): concomitant loss | formation of lysosomes (lysotracker) (APTK organoids; [2]): dose-dependent formation
